According to patent US20250134889A1, “TARGETING IRE1 KINASE AND FMRP FOR PROPHYLAXIS, MANAGEMENT AND TREATMENT OF ATHEROSCLEROSIS” (CEDARS-SINAI MEDICAL CENTER, priority 2022, published 2025):

Legend:
[1] = tested on: mouse and human macrophages; settings: cited from earlier work
atherosclerotic plaque = settings: mice; cited from earlier work
[2] = tested on: RAW 264.7 mouse macrophages; test: ER stressor treatment of RAW 264.7 macrophages (western blot, qRT-PCR); type: cell-based; settings: oxLDL 50 μg/ml or TG 300 nM, 6 hours
Description: FIGS. 1A-1K depict FMRP is a new inositol-requiring enzyme-1 (IRE1) kinase substrate. A representative blot is shown from at least n=3 independent experiments. Data are mean±SEM. Unpaired 1-test with Welch's correction or paired 1-test. * P≤0.05, ** P≤0.01, *** P≤0.001. • 1A. STING analysis of published IRE1 interactome proteins in relation to FMRP (Acosta-Alvear et al., 2018). • 1B. HEK293T cells were co-transfected with IRE1 and FMRP plasmids and stimulated with TG (600 nM) or TM (1 mg/ml) for 2 hours. Protein lysates were immunoprecipitated (IP) with anti-IRE1 or IgG (control) antibodies and analyzed by Western blotting using specific antibodies for FMRP and IRE1 (n=3). • 1C. RAW 264.7 mouse macrophages were treated with either oxLDL (50 μg/ml) or TG (300 nM) for 6 hours. Protein lysates were treated with λ Phosphatase (PPase) for 30 minutes and analyzed by western blotting using specific antibodies for pFMRP, FMRP, pIRE1, IRE1 and β-Actin. pFMRP/FMRP fold induction is depicted above the blots (n=6). • 1D. Apoe^−/− mice were fed with chow diet (CD) or western diet (WD) for 16 weeks followed by peritoneal macrophage (PM) isolation. Protein lysates were analyzed by western blotting using specific antibodies for pFMRP, FMRP, pIRE1, IRE1 and β-Actin. pFMRP/FMRP-fold induction is depicted above the blots (n=5). • 1E. Control- or IRE1-siRNA transfected HEK293T cells were stimulated by either PA (500 μM) or TG (600 nM) for 4 hours. Protein lysates were analyzed by western blotting using specific antibodies for pFMRP, FMRP, pIRE1, IRE1 and β-Actin. pFMRP/FMRP fold induction is depicted above the blots (n=4). • 1F. Protein lysates of thioglycolate-elicited PM from IRE1α^−/− and IRE1α^−/− mice (after 16 weeks on WD) were analyzed by western blotting using specific antibodies for pFMRP, FMRP, pIRE1, IRE1 and β-Actin. pFMRP/FMRP fold induction is depicted above the blots (n=4). • 1G. […] Protein lysates were analyzed by western blotting using specific antibodies for pFMRP, FMRP, pIRE1, IRE1 and β-Actin. pFMRP/FMRP fold induction is depicted above the blots (n=4). • 1H. […] Protein lysates of thioglycolate-elicited PM were analyzed by western blotting using antibodies for pFMRP, FMRP, pIRE1, IRE1 and β-Actin. pFMRP/FMRP fold induction is depicted above the blots (n=4). • 1I. […] The IP protein were analyzed by western blotting using specific antibodies for thiophosphate esters (ThioP), IRE1 and FMRP (n=3). • 1J. Purified FMRP and IRE1 kinase (activated) proteins were subjected to kinase assay and analyzed by western blotting using specific antibodies for ThioP, IRE1 and FMRP (n=3) and with LC-MS/MS. […] Protein lysates were analyzed by western blotting using specific antibodies for FMRP, pFMRP, pIRE1 and β-Actin. pFMRP/FMRP fold induction is depicted above the blots (n=3). […]

HEK293T cells = test: ER stress-induced phosphorylation in control- or IRE1-siRNA transfected HEK293T cells (western blot); type: cell-based, human; settings: PA 500 μM or TG 600 nM, 4 hours, control cells
Description: FIGS. 1A-1K depict FMRP is a new inositol-requiring enzyme-1 (IRE1) kinase substrate. A representative blot is shown from at least n=3 independent experiments. Data are mean±SEM. Unpaired 1-test with Welch's correction or paired 1-test. * P≤0.05, ** P≤0.01, *** P≤0.001. • 1A. STING analysis of published IRE1 interactome proteins in relation to FMRP (Acosta-Alvear et al., 2018). • 1B. HEK293T cells were co-transfected with IRE1 and FMRP plasmids and stimulated with TG (600 nM) or TM (1 mg/ml) for 2 hours. Protein lysates were immunoprecipitated (IP) with anti-IRE1 or IgG (control) antibodies and analyzed by Western blotting using specific antibodies for FMRP and IRE1 (n=3). • 1C. RAW 264.7 mouse macrophages were treated with either oxLDL (50 μg/ml) or TG (300 nM) for 6 hours. Protein lysates were treated with λ Phosphatase (PPase) for 30 minutes and analyzed by western blotting using specific antibodies for pFMRP, FMRP, pIRE1, IRE1 and β-Actin. pFMRP/FMRP fold induction is depicted above the blots (n=6). • 1D. […] Protein lysates were analyzed by western blotting using specific antibodies for pFMRP, FMRP, pIRE1, IRE1 and β-Actin. pFMRP/FMRP-fold induction is depicted above the blots (n=5). • 1E. […] Protein lysates were analyzed by western blotting using specific antibodies for pFMRP, FMRP, pIRE1, IRE1 and β-Actin. pFMRP/FMRP fold induction is depicted above the blots (n=4). • 1F. […]

Row | Structure (SMILES) | lipid-induced inflammasome activation [1] | secretion of mature interleukin-1β (m-IL-1β) and m-IL-18 [1] | atherosclerotic plaque size (atherosclerotic plaque) | hyperlipidemia-induced m-IL-1β and m-IL-18 production (atherosclerotic plaque) | FMRP phosphorylation (S500) [2] | IRE1 autophosphorylation (S724) [2] | levels of FMRP protein [2] | levels of Fmr1 mRNA [2] | phosphorylation of FMRP (HEK293T cells) | phosphorylation of IRE1 (HEK293T cells)
1 | O=S(=O)(N=Cc1c(O)ccc2ccccc12)c1cccs1 [STF-083010] | prevented | prevented | reducing | reducing |  |  |  |  |  | 
2 | Cc1cc(=O)oc2c(C=O)c(O)ccc12 [4μ8C] | prevented | prevented | reducing | reducing |  |  |  |  |  | 
3 | C/C=C(/C)C(=O)O[C@H]1C(C)=C2[C@H]([C@@H]1OC(=O)CCCCCCC)[C@@](C)(OC(C)=O)C[C@H](OC(=O)CCC)[C@@]1(O)[C@H]2OC(=O)[C@@]1(C)O [TG, thapsigargin] |  |  |  |  | significantly induced | significantly induced | did not affect | did not affect | induced | induced
